Data taken from patent publication US11766409B2, “Core-shell polymer nanoparticle” (THE UNIVERSITY OF QUEENSLAND, priority 2018, dated 2023).

System: tumor-bearing mice
Assay: In vivo anti-tumor therapeutic effect in tumor-bearing mice
Conditions: day 25 compared to day 0 post-injection; intravenous, every 72 hours, 5 injections
Protocol: In vivo mice experiments were conducted to evaluate the anti-tumor therapeutic effects of PTX-loaded high (55K/SH-PTX; 39.6% drug loading) and low-drug loading formulations (55K/SH-PTX; 3.5% drug loading) in tumor-bearing mice. Four formulations (PBS, Free PTX, High DL NP, and Low DL NP_where DL is drug loading and NP is core-shell polymer nanoparticle) were injected intravenously every 72 hours for 5 injections in total. The body weight and tumor volume of the mice were monitored every two days. […] The weight increase was higher than the Low DL NP group (4.4% increase) and Free PTX group (2.9% increase).

`CC(=O)O[C@H]1C(=O)[C@@]2(C)[C@H]([C@H](OC(=O)c3ccccc3)[C@]3(O)C[C@H](OC(=O)[C@H](O)[C@@H](NC(=O)c4ccccc4)c4ccccc4)C(C)=C1C3(C)C)[C@]1(OC(C)=O)CO[C@@H]1C[C@@H]2O` [Free PTX, paclitaxel] was tested, and the body weight increase was 2.9%.
